Experimental data taken from the NIST ThermoML archive (doi:10.1016/j.jct.2011.12.037).
Numbers after ± are expanded uncertainties.

How the values were obtained:
[1] = for viscosity / mass density: 101.33 kPa, Liquid; for viscosity: Falling or rolling sphere viscometry; for mass density: Vibrating tube method; for Normal melting temperature: visual observation
[2] = Molar enthalpy of transition or fusion; conditions: Crystal; DSC

SMILES: CCCCCCCC[n+]1cccc2ccccc21.O=S(=O)([N-]S(=O)(=O)C(F)(F)F)C(F)(F)F [1-octylquinolinium bis[(trifluoromethyl)sulfonyl]imide]
- viscosity ([1]; 323.15 K): 98.46 ± 3.5 mPa·s
- mass density ([1]; 323.15 K): 1317.99 ± 6 kg/m3
- viscosity ([1]; 328.15 K): 77.27 ± 2.4 mPa·s
- mass density ([1]; 328.15 K): 1313.82 ± 6 kg/m3
- viscosity ([1]; 333.15 K): 61.75 ± 1.8 mPa·s
- mass density ([1]; 333.15 K): 1309.64 ± 5.9 kg/m3
- viscosity ([1]; 338.15 K): 50.06 ± 1.4 mPa·s
- mass density ([1]; 338.15 K): 1305.46 ± 5.9 kg/m3
- viscosity ([1]; 343.15 K): 41.15 ± 1.2 mPa·s
- mass density ([1]; 343.15 K): 1301.29 ± 5.8 kg/m3
- viscosity ([1]; 348.15 K): 34.22 ± 1 mPa·s
- mass density ([1]; 348.15 K): 1297.14 ± 5.8 kg/m3
- viscosity ([1]; 353.15 K): 28.87 ± 0.85 mPa·s
- mass density ([1]; 353.15 K): 1292.99 ± 5.8 kg/m3
- viscosity ([1]; 358.15 K): 24.7 ± 0.72 mPa·s
- mass density ([1]; 358.15 K): 1288.85 ± 5.7 kg/m3
- viscosity ([1]; 363.15 K): 21.19 ± 0.62 mPa·s
- mass density ([1]; 363.15 K): 1284.71 ± 5.7 kg/m3
- Triple point temperature ([1]; Crystal, DTA): 321.5 ± 0.5 K
- Normal melting temperature ([1]; Crystal): 48.2 ± 1.1 °C
- Glass transition temperature ([1]; Glass, DTA): -52.3 ± 10 °C
- Molar enthalpy of transition or fusion [2]: 15 ± 0.406 kcal/mol

SMILES: c1ccccc1 [benzene]
- Normal melting temperature ([1]; Crystal): 5.5 ± 1.1 °C
